Here are results for 22 compounds from patent US8846704B2, “Thiopyrimidine-based compounds and uses thereof” (YM Biosciences Austraila Pty Ltd, priority 2007, dated 2014).

pIC50: −log10 of the molar value.

One assay concerns the target T1, human JAK3 (Homo sapiens, UniProt P52333).
T1 construct: The kinase domain of human JAK3 was amplified; GST (N); made in house; host or cells: Sf9 insect cells (baculovirus)
Nature of the assay: Alphascreen tyrosine kinase enzyme assay, JAK3 kinase domain. Type of assay: biochemical. Particulars: read-out: JAK3 IC50_nM. Put shortly: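 GST-affinity-purified human JAK3 kinase domain (baculovirus/Sf9) was pre-incubated 20 min with compound ([…]) in HEPES pH 7.5 buffer with MgCl2, vanadate and Tween 20. Biotinylated peptide substrate ([…]) and ATP were then added; phosphotyrosine was detected by AlphaScreen PY100 acceptor and streptavidin donor beads after 2–3 h.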
On the technique in general: In Alpha technology, singlet oxygen from a donor bead excites a nearby acceptor bead.

A further assay deals with CTLL2. The experiment in a line: Cellular screening, CTLL2 cells, Alamar Blue. Particulars: Mus musculus, CTLL-2, read-out: CTLL2 IC50_nM. The class given is cell-based. Put shortly: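 Viability is read with Alamar Blue at 544 nm, the dye added for the final 4-6 hours. Compounds were incubated for 40 hr with CTLL2 cells taken from late-log-phase culture, at 37° C in 5% CO2.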
On the technique in general: The colour change of resazurin is a common sign of viable cells or microbes.

T1 sequence (P52333 822-1111 limits assumed): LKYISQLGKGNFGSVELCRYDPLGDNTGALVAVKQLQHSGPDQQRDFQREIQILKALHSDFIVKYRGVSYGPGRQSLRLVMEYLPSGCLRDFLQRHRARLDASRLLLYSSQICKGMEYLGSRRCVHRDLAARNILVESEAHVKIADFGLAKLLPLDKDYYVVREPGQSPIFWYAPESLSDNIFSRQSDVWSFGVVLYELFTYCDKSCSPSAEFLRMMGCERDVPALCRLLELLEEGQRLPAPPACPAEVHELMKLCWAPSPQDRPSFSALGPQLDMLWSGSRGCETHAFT

As to `C=CC(=O)Nc1cccc(Nc2nccc(SC)n2)c1` [Compound 7, N-(3-(4-(methylthio)pyrimidin-2-ylao)phenyl)acrylamide], the pIC50 is more than 7.00 on human JAK3 and more than 5.30 with CTLL2.
On to `Cc1cnc(Nc2ccc(N3CCOCC3)cc2)nc1Sc1ccc(N2C(=O)COCC2=O)cc1` [Compound 190, 4-(4-(5-methyl-2-(4-morpholinophenylao)pyrimidin-4-ylthio)phenyl)morpholine-3,5-dione], for which the pIC50 is more than 7.00 at human JAK3 and less than 4.70 in the assay on CTLL2.
As for `Cc1cnc(Nc2ccc(O)cc2)nc1Sc1ccc(N)cc1` [Compound 191, 4-(4-(4-aophenylthio)-5-methylpyrimidin-2-ylao)phenol], the pIC50 at human JAK3 was more than 6.30; in the assay on CTLL2 it was more than 5.30.
Turning to `Cc1cnc(Nc2cccc(S)c2)nc1Sc1ccc(NC(=O)CCl)cc1` [Compound 195, 2-chloro-N-(4-(2-(3-mercaptophenylao)-5-methylpyrimidin-4-ylthio)phenyl)acetamide], the pIC50 on human JAK3 is more than 7.00; in the assay on CTLL2 it was less than 4.70.
The corresponding values for `Cc1cnc(Nc2ccc(N3CCOCC3)cc2)nc1Sc1ccc(N2CCSCC2=O)cc1` [Compound 197, 4-(4-(5-methyl-2-(4-morpholinophenylao)pyrimidin-4-ylthio)phenyl)thiomorpholin-3-one] are more than 7.00 and less than 4.70.
The corresponding values for `N#Cc1c(N)ncn1Cc1cccc(Sc2ccnc(Nc3ccc(N4CCOCC4)cc3)n2)c1` [Compound 199, 4-ao-1-(3-(2-(4-morpholinophenylao)pyrimidin-4-ylthio)benzyl)-1H-imiazole-5-carbonitrile] are more than 6.30 and more than 4.70.
As for `N#Cc1ncn(Cc2ccc(Sc3ccnc(Nc4ccc(N5CCOCC5)cc4)n3)cc2)c1N` [Compound 202, 5-ao-1-(4-(2-(4-morpholinophenylao)pyrimidin-4-ylthio)benzyl)-1H-imidazole-4-carbonitrile], the pIC50 on human JAK3 is more than 6.30; in the assay with CTLL2, more than 5.30.
Turning to `N#Cc1c(N)ncn1Cc1ccc(Sc2ccnc(Nc3ccc(N4CCOCC4)cc3)n2)cc1` [Compound 203, 4-ao-1-(4-(2-(4-morpholinophenylao)pyrimidin-4-ylthio)benzyl)-1H-imidazole-5-carbonitrile], the pIC50 at human JAK3 is more than 6.30; with CTLL2, more than 6.00.
Taken in the same sequence, the figures for `c1cc(Sc2ccc(Cn3cncn3)cc2)nc(Nc2ccc(N3CCOCC3)cc2)n1` [Compound 204, 4-(4-((1H-1,2,4-triazol-1-yl)methyl)phenylthio)-N-(4-morpholinophenyl)pyrimidin-2-ae] were more than 6.30 and more than 4.70.
Take `NC(=O)c1ccc(Sc2ccnc(Nc3ccc(N4CCOCC4)cc3)n2)cc1` [Compound 207, 4-(2-(4-morpholinophenylao)pyrimidin-4-ylthio)benzamide]: the pIC50 on human JAK3 was more than 6.30.
`N#CCc1ccc(Sc2ccnc(Nc3ccc(N4CCOCC4)cc3)n2)cc1` [Compound 210, 2-(4-(2-(4-morpholinophenylao)pyrimidin-4-ylthio)phenyl)acetonitrile]: the pIC50 is more than 6.30 on human JAK3 and less than 4.70 in the assay on CTLL2.
Taken in the same sequence, the figures for `Cc1cnc(Nc2ccc(N3CCOCC3)cc2)nc1Sc1cccc(CO)c1` [Compound 212, (3-(5-methyl-2-(4-morpholinophenylao)pyrimidin-4-ylthio)phenyl)methanol] were more than 6.30 and less than 4.70.
The corresponding values for `CON(C)C(=O)c1ccc(Sc2nc(Nc3ccc(N4CCOCC4)cc3)ncc2C)cc1` [Compound 218, N-methoxy-N-methyl-4-(5-methyl-2-(4-morpholinophenylao)pyrimidin-4-ylthio)benzamide] are more than 6.30 and less than 4.70.
Taken in the same sequence, the figures for `Cc1cnc(Nc2ccc(N3CCOCC3)cc2)nc1Sc1ccc(C=O)cc1` [Compound 219, 4-(5-methyl-2-(4-morpholinophenylao)pyrimidin-4-ylthio)benzaldehyde] were more than 6.30 and less than 4.70.
As for `Cc1cnc(Nc2ccc(N3CCOCC3)cc2)nc1Sc1ccc(CO)cc1` [Compound 220, (4-(5-methyl-2-(4-morpholinophenylao)pyrimidin-4-ylthio)phenyl)methanol], the pIC50 at human JAK3 was more than 7.00; in the assay with CTLL2, more than 6.00.
The corresponding values for `Cc1cnc(Nc2ccc(N3CCOCC3)cc2)nc1Sc1ccc(CC#N)cc1` [Compound 222, 2-(4-(5-methyl-2-(4-morpholinophenylao)pyrimidin-4-ylthio)phenyl)acetonitrile] are more than 6.30 and less than 4.70.
As for `Cc1cnc(Nc2ccc(N3CCOCC3)cc2)nc1Sc1ccc(C(C#N)N2CCOCC2)cc1` (stereo not drawn) [Compound 223, 2-(4-(5-methyl-2-(4-morpholinophenylao)pyrimidin-4-ylthio)phenyl)-2-morpholinoacetonitrile], the pIC50 on human JAK3 was more than 6.30; in the assay with CTLL2, more than 5.30.
The corresponding values for `Cc1cnc(Nc2ccc(N3CCOCC3)cc2)nc1Sc1ccc(C(=O)N2CCCC2)cc1` [Compound 224, (4-(5-methyl-2-(4-morpholinophenylao)pyrimidin-4-ylthio)phenyl)(pyrrolidin-1-yl)methanone] are more than 6.30 and less than 4.70.
The corresponding values for `Cc1cnc(Nc2ccc(N3CCOCC3)cc2)nc1Sc1ccc(C(C#N)N2CCN(C)CC2)cc1` (stereo not drawn) [Compound 225, 2-(4-(5-methyl-2-(4-morpholinophenylao)pyrimidin-4-ylthio)phenyl)-2-(4-methylpiperazin-1-yl)acetonitrile] are more than 6.30 and more than 5.30.
Regarding `Cc1cnc(Nc2cccc(NS(C)(=O)=O)c2)nc1Sc1ccc(CO)cc1` [Compound 226, N-(3-(4-(4-(hydroxymethyl)phenylthio)-5-methylpyrimidin-2-ylao)phenyl)methanesulfonamide], the pIC50 at human JAK3 is more than 6.30.
As for `Cc1cnc(Nc2ccc(N3CCOCC3)cc2)nc1Sc1ccc(NC2CCOC2=O)cc1` (stereo not drawn) [Compound 228, 3-(4-(5-methyl-2-(4-morpholinophenylao)pyrimidin-4-ylthio)phenylao)dihydrofuran-2(3H)-one], the pIC50 at human JAK3 is more than 7.00; in the assay on CTLL2 it was less than 4.70.
The corresponding values for `Cc1cnc(Nc2ccc(N3CCOCC3)cc2)nc1Sc1ccc(NC(=O)CO)cc1` [Compound 229, 2-hydroxy-N-(4-(5-methyl-2-(4-morpholinophenylao)pyrimidin-4-ylthio)phenyl)acetamide] are more than 6.30 and more than 4.70.
